Common to all, as to type: physicochemical
Data set [1] in a line: Hydrate formation: exposure at ambient temperature at various relative humidity in a desiccator.
Source text: Aliquots from ribociclib succinate Modification A were exposed in a desiccator with saturated solution of inorganic salt or drying agent to provide a range of various relative humidities.
A short description of data set [2]: DVS (dynamic vapor sorption) sorption/desorption isotherms. The following applies: for Desorption / Sorption: DVS, 25 degrees Celsius; for XRPD after DVS: after DVS cycle at 25 degrees Celsius; for hygroscopicity classification: from DVS data at 25° C. From the text: Anhydrous modifications A and E of ribociclib succinate were submitted to DVS analysis. The results are reported in FIGS. 14 and 15 and in Table 12.

Data set [3] can be described thus: Long term stability studies, exposure to high relative humidity. The settings on record: 75% RH at 40 or 50° C., less protective packaging material.
The next data set in a line: Thermogravimetry.
Data set [4] is described as follows: Conversion to dihydrate Modification HB (water activity, suspension equilibration).
Where [5] appears, read: relative humidity 10%, succinate.
[6] abbreviates: relative humidity 20%, succinate.
The mark [7] stands for this setting: relative humidity 30%, succinate.
The mark [8] stands for this setting: relative humidity 40%, succinate.
[9] abbreviates: relative humidity 50%, succinate.
Setting [10] is: relative humidity 60%, succinate.
Where [11] appears, read: relative humidity 70%, succinate.
[12] abbreviates: relative humidity 80%, succinate.
Setting [13] is: relative humidity 90%, succinate.
Where [14] appears, read: relative humidity 95%, succinate.
Where [15] appears, read: heating rate 10 degrees Celsius per minute.

Turning to `CN(C)C(=O)c1cc2cnc(Nc3ccc(N4CCNCC4)cn3)nc2n1C1CCCC1.O=C(O)CCC(=O)O` [Modification A, 7-Cyclopentyl-2-(5-piperazin-1-yl-pyridin-2-ylamino)-7H-pyrrolo[2,3-d]pyrimidine-6-carboxylic acid dimethylamide succinate, reference compound], the “loss on drying by thermogravimetry” value is listed as 3.9% in data set [1] (after 10 days at 92% RH, ambient temperature) and “lower than 0.05%” in data set [1] (starting material before exposure). The “physical stability (XRPD)” value was “some additional peaks at about 4.7, 6.4, 12.0 and 13.0 degree 2θ can be detected” in data set [1] (exposed to 92% RH at ambient temperature for 1 day, peaks assigned to Modification HA); “physically stable” in data set [1] (exposed up to 80% RH at ambient temperature for 1 day); “physically unstable” in data set [3]. Moreover, the “conversion (XRPD)” value in data set [1] (exposed to 92% RH at ambient temperature for 10 days) was “complete conversion”. For the same compound, the “behaviour at high relative humidity” value in data set [1] (sufficient amount of time at relative humidity close or higher than 92%) was “starts to deliquesce”. Besides, the Desorption is on record as 0.0 wt % in data set [2] (relative humidity 0%); 0.1 wt % in data set [2] (setting [5]); 0.1 wt % in data set [2] (relative humidity 20%); 0.1 wt % in data set [2] (relative humidity 30%); 0.1 wt % in data set [2] (relative humidity 40%). Moreover, the Sorption in data set [2] (relative humidity 0%) was 0.0 wt %; in data set [2] (setting [5]), 0.1 wt %; in data set [2] (setting [6]), 0.1 wt %; in data set [2] (setting [7]), 0.2 wt %; in data set [2] (setting [8]) it was 0.2 wt %; in data set [2] (setting [9]) it was 0.2 wt %. The Sorption is 0.2 wt % in data set [2] (setting [10]); 0.3 wt % in data set [2] (setting [11]); 0.3 wt % in data set [2] (setting [12]); 0.5 wt % in data set [2] (setting [13]); 0.7 wt % in data set [2] (setting [14]). The “XRPD after DVS” value in data set [2] was “No change”. In addition, in data set [2] (exposed to 92% HR., 25° C.), the “maximum mass change compared to the dry state” value is recorded as “about 0.7%”. The “water uptake in comparison to the dry state (0% RH)” value in data set [2] (exposed to 95% RH in DVS cycle at 25° C.) is recorded as “about 0.7%”. Further, in data set [2] (succinate), the hygroscopicity classification result is “slightly hygroscopic”. Also, in “Thermogravimetry” (from 30 to 180° C.), the loss on drying result is “less than 0.05%”. The decomposition temperature entry in “Thermogravimetry” (setting [15]) was “about 200 °C”. Further, the “water activity for conversion into dihydrate Modification HB” value in data set [4] (conversion observed in bulk at 40° C./75% RH) is listed as “higher than 70 % relative humidity (RH)”.
With `CN(C)C(=O)c1cc2cnc(Nc3ccc(N4CCNCC4)cn3)nc2n1C1CCCC1.O=C(O)CCC(=O)O` [Modification E, 7-Cyclopentyl-2-(5-piperazin-1-yl-pyridin-2-ylamino)-7H-pyrrolo[2,3-d]pyrimidine-6-carboxylic acid dimethylamide succinate], the “max water uptake (mass change)” value in data set [2] (DVS cycle at 25° C.) worked out at 0.1%. Besides, the Desorption in data set [2] (relative humidity 0%) was 0.0 wt %; in data set [2] (setting [5]) it was 0.0 wt %; in data set [2] (relative humidity 20%) it was 0.1 wt %; in data set [2] (relative humidity 30%) it was 0.1 wt %; in data set [2] (relative humidity 40%), 0.1 wt %. Further, the Sorption in data set [2] (relative humidity 0%) is 0.0 wt %; in data set [2] (setting [5]) it was 0.0 wt %; in data set [2] (setting [6]), 0.0 wt %; in data set [2] (setting [7]) it was 0.1 wt %; in data set [2] (setting [8]), 0.1 wt %; in data set [2] (setting [9]) it was 0.1 wt %. For the same compound, the Sorption in data set [2] (setting [10]), in data set [2] (setting [11]), in data set [2] (setting [12]), in data set [2] (setting [13]) and in data set [2] (setting [14]) was 0.1 wt % each time. Further, the “XRPD after DVS” value in data set [2] is listed as “No change”. For the same compound, in data set [2] (succinate), the hygroscopicity classification entry was “not hygroscopic”. Moreover, in “Thermogravimetry” (from 30 to 180° C.), the loss on drying entry is “less than 0.05%”. In the data set “Thermogravimetry” (setting [15]), the decomposition temperature entry was “about 200 °C”. Moreover, in data set [4] (suspension equilibration at 25° C.), the “water activity (aH2O) at which Modification HB is obtained” value is ≥ 0.68.
As to `CN(C)C(=O)c1cc2cnc(Nc3ccc(N4CCNCC4)cn3)nc2n1C1CCCC1` [Modification F], the loss on drying result in the data set “Thermogravimetry” (from 30 to 140° C.) is recorded as “less than 0.0%”.
With `CN(C)C(=O)c1cc2cnc(Nc3ccc(N4CCNCC4)cn3)nc2n1C1CCCC1.O.O.O=C(O)CCC(=O)O` [Modification HB], the Desorption in data set [2] (relative humidity 0%) stood at 0.0 wt %; in data set [2] (relative humidity 10%) it was 1.2 wt %; in data set [2] (relative humidity 20%) it was 1.7 wt %; in data set [2] (relative humidity 30%), 1.9 wt %; in data set [2] (relative humidity 40%) it was 2.0 wt %. The Sorption amounted to 0.0 wt % in data set [2] (relative humidity 0%); 0.8 wt % in data set [2] (relative humidity 10%); 1.3 wt % in data set [2] (relative humidity 20%); 1.7 wt % in data set [2] (relative humidity 30%); 1.9 wt % in data set [2] (relative humidity 40%); 2.1 wt % in data set [2] (relative humidity 50%). Moreover, the Sorption in data set [2] (relative humidity 60%) is on record as 2.2 wt %; in data set [2] (relative humidity 70%) it was 2.3 wt %; in data set [2] (relative humidity 80%) it was 2.4 wt %; in data set [2] (relative humidity 90%), 2.5 wt %; in data set [2] (relative humidity 95%) it was 2.5 wt %. In addition, the “XRPD after DVS” value in data set [2] is recorded as “No change”. Besides, in “Thermogravimetry” (at about 120° C.), the “mass loss on loss of water” value is “about 5.8%”. In “Thermogravimetry” (setting [15]), the decomposition temperature entry was “about 200 °C”. In addition, the “temperature of loss of water” value in “Thermogravimetry” (setting [15]) is “about 120 °C”.

These data come from patent publication US20250281492A1, “NEW CRYSTALLINE FORMS OF SALT OF 7-CYCLOPENTYL-2-(5-PIPERAZIN-1-YL-PYRIDIN-2-YLAMINO)-7H-PYRROLO[2,3-D]PYRIMIDINE -6-CARBOXYLIC ACID DIMETHYLAMIDE” (priority 2019, published 2025).
